Data on 21 compounds can be found in patent US8404708B2, “Dual NK1/NK3 receptor antagonists” (Hoffmann-La Roche Inc., priority 2004, dated 2013).

Assay [1] deals with T1, Recombinant human NK3 (hNK3) receptor (Homo sapiens, UniProt P29371).
T1 construct: expressed in transfected cells
T1 sequence (P29371 1-465): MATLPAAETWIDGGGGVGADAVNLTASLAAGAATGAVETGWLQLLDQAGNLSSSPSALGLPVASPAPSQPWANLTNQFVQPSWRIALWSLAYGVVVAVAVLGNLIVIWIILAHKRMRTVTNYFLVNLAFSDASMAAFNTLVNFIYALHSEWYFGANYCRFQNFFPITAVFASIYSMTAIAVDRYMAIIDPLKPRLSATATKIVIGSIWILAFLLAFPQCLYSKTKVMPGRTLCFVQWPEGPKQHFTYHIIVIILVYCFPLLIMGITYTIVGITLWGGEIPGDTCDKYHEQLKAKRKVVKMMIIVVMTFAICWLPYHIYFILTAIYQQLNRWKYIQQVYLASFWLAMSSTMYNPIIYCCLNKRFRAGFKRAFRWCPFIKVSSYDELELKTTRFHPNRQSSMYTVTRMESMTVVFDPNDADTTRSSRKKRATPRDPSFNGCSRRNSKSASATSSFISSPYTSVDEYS
The assay is described as follows: NK3 receptor binding, [3H]SR142801 displacement, membrane preparations. Summed up: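 Incubation ran 90 min at room temperature in 50 mM Tris-HCl pH 7.4 with 0.1% BSA, 4 mM MnCl2 and 1 μM phosphoramidon, using about 2.5 μg hNK3 membrane protein per well. Nonspecific binding was defined with 10 μM SB222200, and bound radioactivity was collected on PEI-soaked GF/C filters for scintillation counting.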

The next assay has as its target human NK1 receptor (Homo sapiens, UniProt P25103). The assay is described as follows: NK1 receptor binding, [3H]substance P displacement, CHO cell membranes.
Setting [2] is: second value of the cell pKi NK1/NK3, hNK3 receptor, [3H]SR142801.
[3] abbreviates: first value of the cell pKi NK1/NK3, human NK1 receptor, [3H]substance P.
Setting [4] is: second value of the cell NK1/NK3, read-out: pKi NK3 (converted).
Setting [5] is: first value of the cell NK1/NK3, read-out: pKi NK1 (converted).

Like-named read-outs stand apart in the source and are kept apart here.

human NK1 receptor, sequence (P25103 whole entry): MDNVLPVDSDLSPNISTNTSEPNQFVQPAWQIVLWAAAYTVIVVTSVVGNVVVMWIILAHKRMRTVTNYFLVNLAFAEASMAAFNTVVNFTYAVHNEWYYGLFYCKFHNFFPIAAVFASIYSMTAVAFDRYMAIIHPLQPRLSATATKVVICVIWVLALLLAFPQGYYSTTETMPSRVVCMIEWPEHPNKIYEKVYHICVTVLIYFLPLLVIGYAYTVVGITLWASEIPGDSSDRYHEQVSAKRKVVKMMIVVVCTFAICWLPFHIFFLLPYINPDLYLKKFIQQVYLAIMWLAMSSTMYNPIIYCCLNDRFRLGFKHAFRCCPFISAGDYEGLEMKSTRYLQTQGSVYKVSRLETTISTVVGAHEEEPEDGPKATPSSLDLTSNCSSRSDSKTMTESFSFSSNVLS

Regarding `Cc1ccccc1-c1cc(NC[C@@H](C)O)ncc1N(C)C(=O)C(C)(C)c1cc(C(F)(F)F)cc(C(F)(F)F)c1` [Example 173, (R)-2-(3,5-Bis-trifluoromethyl-phenyl)-N-[6-(2-hydroxy-propylamino)-4-o-tolyl-pyridin-3-yl]-N-methyl-isobutyramide], the Ki in assay [1] (setting [2]) is 1.86 nM; at human NK1 receptor (setting [3]), 1.91 nM.
For `Cc1cc(F)ccc1-c1cc(N[C@H]2CCC[C@@H]2O)ncc1N(C)C(=O)C(C)(C)c1cc(C(F)(F)F)cc(C(F)(F)F)c1` [Example 154, (1S,2S)-2-(3,5-Bis-trifluoromethyl-phenyl)-N-[4-(4-fluoro-2-methyl-phenyl)-6-(2-hydroxy-cyclopentylamino)-pyridin-3-yl]-N-methyl-isobutyramide] the same measures were 5.75 nM and 3.16 nM.
As to `CN(C(=O)C(C)(C)c1cc(C(F)(F)F)cc(C(F)(F)F)c1)c1cnc(N2C[C@@H](O)C[C@H]2CO)cc1-c1ccc(F)cc1F` [Example 237, (2S,4S)-2-(3,5-Bis-trifluoromethyl-phenyl)-N-[4-(2,4-difluoro-phenyl)-6-(4-hydroxy-2-hydroxymethyl-pyrrolidin-1-yl)-pyridin-3-yl]-N-methyl-isobutyramide], the results for the Ki (in assay [1] (setting [4]); at human NK1 receptor (setting [5])) were 7.76 nM and 1.02 nM, respectively.
For `CCN(C(C)=O)[C@@H]1CCN(c2cc(-c3ccc(F)cc3C)c(N(C)C(=O)C(C)(C)c3cc(C(F)(F)F)cc(C(F)(F)F)c3)cn2)C1` [Example 102, (R)-N-[6-[3-(Acetyl-ethyl-amino)-pyrrolidin-1-yl]-4-(4-fluoro-2-methyl-phenyl)-pyridin-3-yl]-2-(3,5-bis-trifluoromethyl-phenyl)-N-methyl-isobutyramide], the Ki in assay [1] (setting [2]) was 13.2 nM; at human NK1 receptor (setting [3]), 1.95 nM.
For `Cc1ccc(F)cc1-c1cc(N(CCO)CCO)ncc1N(C)C(=O)C(C)(C)c1cc(C(F)(F)F)cc(C(F)(F)F)c1` [Example 128, N-[6-[Bis-(2-hydroxy-ethyl)-amino]-4-(5-fluoro-2-methyl-phenyl)-pyridin-3-yl]-2-(3,5-bis-trifluoromethyl-phenyl)-N-methyl-isobutyramide] the same measures were 5.62 nM and 2.63 nM.
In the case of `CC(=O)N[C@@H]1CCN(c2cc(-c3ccccc3Cl)c(N(C)C(=O)C(C)(C)c3cc(C(F)(F)F)cc(C(F)(F)F)c3)cn2)C1` [Example 44, (R)-N-[6-(3-Acetylamino-pyrrolidin-1-yl)-4-(2-chloro-phenyl)-pyridin-3-yl]-2-(3,5-bis-trifluoromethyl-phenyl)-N-methyl-isobutyramide], the Ki is 15.5 nM in assay [1] (setting [2]) and 0.631 nM on human NK1 receptor (setting [3]).
The like results for `Cc1cc(F)ccc1-c1cc(N2CCC[C@H]2CO)ncc1N(C)C(=O)C(C)(C)c1cc(F)cc(F)c1` [Example 28, (S)-2-(3,5-Difluoro-phenyl)-N-[4-(4-fluoro-2-methyl-phenyl)-6-(2-hydroxymethyl-pyrrolidin-1-yl)-pyridin-3-yl]-N-methyl-isobutyramide] were, in that order, 3.98 nM and 2.82 nM.
The like results for `CC(=O)N(C)[C@H]1CCN(c2cc(-c3ccc(F)cc3C)c(N(C)C(=O)C(C)(C)c3cc(C(F)(F)F)cc(C(F)(F)F)c3)cn2)C1` [Example 107, (S)-N-[6-[3-(Acetyl-methyl-amino)-pyrrolidin-1-yl]-4-(4-fluoro-2-methyl-phenyl)-pyridin-3-yl]-2-(3,5-bis-trifluoromethyl-phenyl)-N-methyl-isobutyramide] were, in that order, 11.7 nM and 2.34 nM.
`Cc1ncccc1-c1cc(N2CCC[C@H]2CO)ncc1N(C)C(=O)C(C)(C)c1cc(C(F)(F)F)cc(C(F)(F)F)c1` [Example 290, (S)-2-(3,5-Bis-trifluoromethyl-phenyl)-N-[6′-(2-hydroxymethyl-pyrrolidin-1-yl)-2-methyl-[3,4′]bipyridinyl-3′-yl]-N-methyl-isobutyramide]: the Ki is 1.78 nM in assay [1] (setting [4]) and 1.45 nM on human NK1 receptor (setting [5]).
With `CN(C(=O)C(C)(C)c1cc(C(F)(F)F)cc(C(F)(F)F)c1)c1cnc(N2CC[C@H](O)C[C@@H]2CO)cc1-c1ccccc1Cl` (racemic) [Example 189, (2RS,4SR)-2-(3,5-Bis-trifluoromethyl-phenyl)-N-[4′-(2-chloro-phenyl)-4-hydroxy-2-hydroxymethyl-3,4,5,6-tetrahydro-2H-[1,2′]bipyridinyl-5′-yl]-N-methyl-isobutyramide], the Ki in assay [1] (setting [2]) was 3.98 nM; on human NK1 receptor (setting [3]) it was 1.51 nM.
On to `Cc1ccncc1-c1cc(N(CCO)CCO)ncc1N(C)C(=O)C(C)(C)c1cc(C(F)(F)F)cc(C(F)(F)F)c1` [Example 293, N-{6′-[Bis-(2-hydroxy-ethyl)-amino]-4-methyl-[3,4′]bipyridinyl-3′-yl}-2-(3,5-bis-trifluoromethyl-phenyl)-N-methyl-isobutyramide], for which the Ki in assay [1] (setting [4]) was 1.62 nM; on human NK1 receptor (setting [5]) it was 3.8 nM.
With `CCC(O)CNc1cc(-c2ccccc2Cl)c(N(C)C(=O)C(C)(C)c2cc(C(F)(F)F)cc(C(F)(F)F)c2)cn1` (stereo not drawn) [Example 76, 2-(3,5-Bis-trifluoromethyl-phenyl)-N-[4-(2-chloro-phenyl)-6-(2-hydroxy-butylamino)-pyridin-3-yl]-N-methyl-isobutyramide], the Ki in assay [1] (setting [2]) was 10.7 nM; at human NK1 receptor (setting [3]), 1.58 nM.
As to `CN(C(=O)C(C)(C)c1cc(C(F)(F)F)cc(C(F)(F)F)c1)c1cnc(N2CC[C@H](O)[C@H]2CO)cc1-c1ccc(F)cc1C=O` [Example 273, (2R,3S)-2-(3,5-Bis-trifluoromethyl-phenyl)-N-[4-(4-fluoro-2-formyl-phenyl)-6-(3-hydroxy-2-hydroxymethyl-pyrrolidin-1-yl)-pyridin-3-yl]-N-methyl-isobutyramide], the values for the Ki (in assay [1] (setting [4]); at human NK1 receptor (setting [5])) were 1.55 nM and 1.45 nM, respectively.
For `CN(C(=O)C(C)(C)c1cc(C(F)(F)F)cc(C(F)(F)F)c1)c1cnc(N2C[C@@H](O)C[C@H]2CO)cc1-c1cccc(Cl)c1Cl` [Example 253, (2S,4S)-2-(3,5-Bis-trifluoromethyl-phenyl)-N-[4-(2,3-dichloro-phenyl)-6-(4-hydroxy-2-hydroxymethyl-pyrrolidin-1-yl)-pyridin-3-yl]-N-methyl-isobutyramide] the same measures were 3.16 nM and 2.88 nM.
In the case of `Cc1cc(F)ccc1-c1cc(N[C@H]2CC[C@H](O)CC2)ncc1N(C)C(=O)C(C)(C)c1cc(C(F)(F)F)cc(C(F)(F)F)c1` [Example 92, trans-2-(3,5-Bis-trifluoromethyl-phenyl)-N-[4-(4-fluoro-2-methyl-phenyl)-6-(4-hydroxy-cyclohexylamino)-pyridin-3-yl]-N-methyl-isobutyramide], the results for the Ki (in assay [1] (setting [2]); on human NK1 receptor (setting [3])) were 21.4 nM and 1.02 nM, respectively.
The like results for `CN(C(=O)C(C)(C)c1cc(C(F)(F)F)cc(C(F)(F)F)c1)c1cnc(N2CCC(O)CC2)cc1-c1ccccc1Cl` [Example 51, 2-(3,5-bis-trifluoromethyl-phenyl)-N-[4′-(2-chloro-phenyl)-4-hydroxy-3,4,5,6-tetrahydro-2H-[1,2′]bipyridinyl-5′-yl]-N-methyl-isobutyramide] were, in that order, 28.8 nM and 0.646 nM.
The like results for `C[C@H](O)CNc1cc(-c2ccc(Cl)cc2Cl)c(N(C)C(=O)C(C)(C)c2cc(C(F)(F)F)cc(C(F)(F)F)c2)cn1` [Example 71, (S)-2-(3,5-Bis-trifluoromethyl-phenyl)-N-[4-(2,4-dichloro-phenyl)-6-(2-hydroxy-propylamino)-pyridin-3-yl]-N-methyl-isobutyramide] were, in that order, 9.12 nM and 2.04 nM.
Regarding `CN(C(=O)C(C)(C)c1cc(C(F)(F)F)cc(C(F)(F)F)c1)c1cnc(N2CCC[C@H]2CO)cc1-c1ccc(Cl)cc1` [Example 287, (S)-2-(3,5-Bis-trifluoromethyl-phenyl)-N-[4-(4-chloro-phenyl)-6-(2-hydroxymethyl-pyrrolidin-1-yl)-pyridin-3-yl]-N-methyl-isobutyramide], the Ki in assay [1] (setting [4]) is 7.41 nM; on human NK1 receptor (setting [5]) it was 6.31 nM.
As to `CN(C(=O)C(C)(C)c1cc(C(F)(F)F)cc(C(F)(F)F)c1)c1cnc(N(CCO)CCO)cc1-c1ccc(Cl)cc1Cl` [Example 86, N-[6-[Bis-(2-hydroxy-ethyl)-amino]-4-(2,4-dichloro-phenyl)-pyridin-3-yl]-2-(3,5-bis-trifluoromethyl-phenyl)-N-methyl-isobutyramide], the Ki in assay [1] (setting [2]) is 3.55 nM; on human NK1 receptor (setting [3]) it was 1.66 nM.
`CN(C(=O)C(C)(C)c1cc(C(F)(F)F)cc(C(F)(F)F)c1)c1cnc(N2CCC[C@H]2CO)cc1-c1cccc(Cl)c1Cl` [Example 285, (S)-2-(3,5-Bis-trifluoromethyl-phenyl)-N-[4-(2,3-dichloro-phenyl)-6-(2-hydroxymethyl-pyrrolidin-1-yl)-pyridin-3-yl]-N-methyl-isobutyramide]: the Ki in assay [1] (setting [4]) was 1.86 nM; at human NK1 receptor (setting [5]) it was 1.58 nM.
Take `Cc1ccccc1-c1cc(N2CCC[C@H]2CO)ncc1N(C)C(=O)C(C)(C)c1cc(C(F)(F)F)cc(C(F)(F)F)c1` [Example 279, (S)-2-(3,5-Bis-trifluoromethyl-phenyl)-N-[6-(2-hydroxymethyl-pyrrolidin-1-yl)-4-o-tolyl-pyridin-3-yl]-N-methyl-isobutyramide]: the Ki in assay [1] (setting [4]) is 1.17 nM; on human NK1 receptor (setting [5]), 2.82 nM.
